Laboratory results from PubChem BioAssay (NCI).
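These data come from cells grown in 96-well plates and exposed to compound for 48 hours at five concentrations. The concentration for full growth arrest is given as TGI.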

How the values were obtained:
Assay in all cases: growth of human tumour cells (NCI), 48 h
[1] = tested on: KM12 colon
[2] = tested on: LOX IMVI melanoma
[3] = tested on: OVCAR-4 ovarian
[4] = tested on: DMS 114 small cell lung
[5] = tested on: HOP-62 NSCLC
[6] = tested on: SF-268 CNS
[7] = tested on: EKVX NSCLC
[8] = tested on: HL-60(TB) leukemia
[9] = tested on: NCI-H460 lung
[10] = tested on: CAKI-1 renal
[11] = tested on: A498 renal
[12] = tested on: TK-10 renal
[13] = tested on: UACC-62 melanoma
[14] = tested on: 786-0 renal
[15] = tested on: MOLT-4 leukemia
[16] = tested on: SF-295 CNS
[17] = tested on: LXFL 529 NSCLC
[18] = tested on: MALME-3M melanoma
[19] = tested on: OVCAR-3 ovarian
[20] = tested on: CCRF-CEM leukemia
[21] = tested on: SK-OV-3 ovarian
[22] = tested on: COLO 205 colon
[23] = tested on: NCI-H23 lung
[24] = tested on: NCI-H522 lung
[25] = tested on: RXF-631 renal
[26] = tested on: HOP-18 NSCLC
[27] = tested on: UACC-257 melanoma
[28] = tested on: SNB-75 CNS
[29] = tested on: RXF 393 renal
[30] = tested on: HCT-116 colon
[31] = tested on: A549 NSCLC
[32] = tested on: SK-MEL-28 melanoma
[33] = tested on: XF 498 CNS
[34] = tested on: SK-MEL-5 melanoma
[35] = tested on: HT29 colon
[36] = tested on: SN12C renal
[37] = tested on: IGROV1 ovarian
[38] = tested on: K-562 leukemia
[39] = tested on: NCI-H226 lung
[40] = tested on: SR leukemia
[41] = tested on: SW-620 colon
[42] = tested on: M19-MEL melanoma
[43] = tested on: SNB-78 CNS
[44] = tested on: ACHN renal
[45] = tested on: SNB-19 CNS
[46] = tested on: HOP-92 NSCLC
[47] = tested on: U251 CNS
[48] = tested on: M14 melanoma
[49] = tested on: UO-31 renal
[50] = tested on: OVCAR-8 ovarian
[51] = tested on: SF-539 CNS
[52] = tested on: HCT-15 colon
[53] = tested on: DMS 273 small cell lung
[54] = tested on: HCC-2998 colon
[55] = tested on: OVCAR-5 ovarian
[56] = tested on: RPMI-8226 leukemia
[57] = tested on: KM20L2 colon
[58] = tested on: SK-MEL-2 melanoma

Measured: TGI

CC1CC[C@]2(C(=O)O)CCC3(C)C(=CC(=O)C4[C@@]5(C)CCC(=O)C(C)(C)C5CC[C@]43C)[C@@H]2[C@H]1C (some centres not stated)
32.2 µM: [15]
44.1 µM: [51]
42.8 µM: [2]
96.9 µM: [27]
30.6 µM: [13]
92.6 µM: [39]
98.8 µM: [47]
46.3 µM: [5]
24.7 µM: [8]
58.9 µM: [20]
44 µM: [19]
37.5 µM: [40]
29.5 µM: [33]
38.1 µM: [49]
49.4 µM: [29]
94.6 µM: [26]
73.2 µM: [46]
42.9 µM: [32]
79.3 µM: [23]
43 µM: [30]
90.2 µM: [12]
71.3 µM: [24] | [42]
80.3 µM: [18]
56.1 µM: [1]
63.1 µM: [4]
33.7 µM: [22]
not listed: [52] | [53] | [54] | [55] | [56] | [57] | [58]
> 100 µM: all other assays above

CCOc1ccccc1NC(=O)CC(C(=O)OC)C(=O)C(=O)OC (configuration not stated)
not listed: [28] | [33]
> 100 µM: all other assays above
